Holding throughout (test): inhibition of tumour cell growth, NCI panel, 48 h
For assay [1], the system named is KM12 colon.
The subject of assay [2] is SN12C renal.
Assay [3] has as its system OVCAR-8 ovarian.
Assay [4] has as its system UO-31 renal.
For assay [5], the system named is SF-539 CNS.
The test system of assay [6] is NCI-H522 lung.
For assay [7], the system named is LOX IMVI melanoma.
The subject of assay [8] is SW-620 colon.
Assay [9] relates to K-562 leukemia.
The test system of assay [10] is COLO 205 colon.

Several values for one entry are separate records, joined by “and”; a condition that tells them apart may be missing. Equal entries are not always repeated.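 Where inhibition never reached the appropriate level, the endpoint shown equals the highest concentration tested. Otherwise, values were interpolated linearly from a five-concentration, 48-hour dose response in 96-well plates. Here, GI50 denotes the concentration required for 50% inhibition of growth. TGI: concentration producing complete growth inhibition.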 Some results are limits rather than exact numbers.

Take `CC/C=C\C[C@H](O)C/C=C1/C(=O)C(Cl)=C[C@@H]1C/C=C\CCCC(=O)OC`: the GI50 is 0.387 µM in [1]; 0.426 µM in assay [2]; 0.347 µM in assay [3]; 0.413 µM in assay [4]; 0.818 µM in [5]; 0.271 µM in [6]. Besides, the GI50 in assay [7] is 0.258 µM; in assay [8] it was 0.318 µM; in [9] it was 0.269 µM; in assay [10] it was 0.55 µM. The TGI in [1] came to 1.14 µM; in [2], 1.33 µM; in [3], 0.864 µM; in assay [4], 1.29 µM; in assay [5] it was 3.05 µM; in [6] it was 0.592 µM. The TGI is 0.52 µM in assay [7], 1.29 µM in assay [8], 16.7 µM in assay [9] and 1.69 µM in [10].

`COc1ccccc1/C=N\N/C(N)=N\N=C\c1ccccc1OC`: the GI50 is 0.264 µM in [1]; 1.7 µM in assay [2]; 0.301 µM in [3]; 2.31 µM in assay [4]; 0.264 µM in [5]; 0.956 µM in assay [6]. Further, the GI50 in [7] was 2.4 µM; in assay [8] it was 0.376 µM; in assay [9], 0.263 µM; in assay [10] it was 0.232 µM. In addition, the TGI was 1.36 µM in assay [1]; > 46.8 µM in [2]; 17.5 µM in [3]; > 23.1 µM in assay [4]; 1.02 µM in [5]; > 39.5 µM in assay [7]. Further, the TGI in [8] came out at 18.9 µM; in assay [9], 1.7 µM; in assay [10], 0.631 µM.

On to `N#CN/C(N)=N/CO`, for which the TGI is > 55.2 µM in assay [1]; > 100 µM in assay [2]; > 100 µM in assay [3]; > 100 µM in [4]; > 100 µM in [5]; > 100 µM in assay [6]. In addition, the TGI in assay [7] is > 57.7 µM; in assay [8], > 56.3 µM; in [9] it was > 100 µM; in assay [10], > 57.8 µM.

`O=C(Nc1ccc(Nc2ccncc2)cc1)c1ccc([N+](=O)[O-])cc1`: the GI50 is 4.23 µM in assay [1]; 2.75 µM in [2]; 8.44 µM in [3]; 3.46 µM in [4]; 3.58 µM in assay [5]; 12.5 µM in assay [6]. Also, the GI50 in assay [7] is 3.72 µM; in assay [8] it was 2.22 µM; in [9] it was 3.11 µM; in [10], 1.9 µM. Also, the TGI came to 17.3 µM in assay [1]; 8.79 µM in assay [2]; 32.6 µM in [3]; 10.4 µM in assay [4]; 13.2 µM in assay [5]; 34.6 µM in assay [6]. Besides, the TGI is 14.7 µM in assay [7], 5.08 µM in [8], > 28.2 µM in [9] and 3.73 µM in assay [10].

Turning to `CC1(C)S[C@@H]2[C@H](NC(=O)C3(N)CCCCC3)C(=O)N2[C@H]1C(=O)O`, the TGI in assay [1], in [2], in [3], in assay [4], in assay [5] and in [6] was > 100 µM throughout. Also, the TGI in [7], in assay [8], in assay [9] and in assay [10] was > 100 µM throughout.

Consider `CSc1nc(=O)n(CCC#N)nc1SC`, for which the TGI is > 100 µM in [1]; > 100 µM in assay [2]; > 100 µM in [3]; > 100 µM in assay [4]; > 100 µM in [5]; 61.8 µM in [6]. In addition, the TGI in assay [7] turned out to be 43.5 µM; in assay [8] it was 58.3 µM; in assay [9], 71.1 µM; in assay [10], 52.8 µM.

With `NC(=S)N/N=C/C(=O)O`, the GI50 in assay [1], in assay [2], in [3], in assay [4], in assay [5] and in [6] was > 100 µM each time. Also, the GI50 in assay [7] was > 100 µM; in assay [8], > 100 µM; in [9], 27 µM; in [10], > 100 µM. Also, the TGI in assay [1], in assay [2], in assay [3], in [4], in assay [5] and in assay [6] was > 100 µM in each case. Further, the TGI in assay [7], in assay [8], in assay [9] and in [10] was > 100 µM in each case.

For `CCCCOC(=O)CNC(=O)OC/C=C/C#CC#C/C=C/COC(=O)NCC(=O)OCCCC`, the GI50 in [1], in assay [2], in [3], in assay [4], in assay [5] and in assay [6] was > 100 µM each time. The GI50 in assay [9] and in [10] was > 100 µM each time. The TGI in [1], in assay [2], in assay [3], in assay [4], in assay [5] and in assay [6] was > 100 µM throughout. Further, the TGI in [7] was > 10 µM; in assay [8], > 100 µM; in assay [9] it was > 100 µM; in assay [10], > 100 µM.

Take `COC(=O)C[C@](O)(CCCC(C)(C)O)C(=O)O[C@@H]1C(OC)=C[C@]23CCCN2CCc2cc4c(cc2[C@H]13)OCO4`: the GI50 in assay [1] is 0.0326 µM; in assay [2], 0.0405 µM; in [3], 0.0287 µM; in assay [4], 0.181 µM; in assay [5], 0.0195 µM; in assay [6] it was 0.0482 µM and < 0.01 µM. The GI50 in [7] is 0.0129 µM; in [8], 0.0293 µM; in assay [9], 0.0292 µM; in assay [10] it was 0.0283 µM. In addition, the TGI in [1] is 0.885 µM and 0.182 µM; in assay [2] it was 0.666 µM and 0.526 µM; in assay [4] it was 2.01 µM and 3.13 µM; in assay [5] it was 0.264 µM and 0.0539 µM; in [6], 0.186 µM and 0.0288 µM; in [8], 2.59 µM and 5.05 µM.

For `O=C(CCN(C(=O)O)S(=O)(=O)c1ccc(NC(=O)c2ccccc2)cc1)Nc1ccccc1`, the TGI in assay [1], in assay [2], in [3], in [4], in assay [5] and in assay [6] was > 100 µM throughout. Besides, the TGI in assay [7] was > 71.4 µM; in [8], > 68 µM; in assay [9], > 83.2 µM; in assay [10], > 80.2 µM.

Consider `COc1cc(OCc2cccc(-c3ccc(C(O)c4nccs4)cc3)c2C)cc(OC)c1C=O` (configuration not stated), for which the GI50 in assay [1] is 3.02 µM; in assay [2], 1.98 µM; in [3], 2.9 µM; in [4], 1.49 µM; in [5] it was 1.96 µM; in [6], 1.74 µM. Moreover, the GI50 was 1.79 µM in [7], 3.2 µM in assay [8], 1.22 µM in assay [9] and 2.64 µM in assay [10]. Further, the TGI in assay [1] is 11 µM; in assay [2], 7.07 µM; in assay [3], 23.6 µM; in assay [4], 4.68 µM; in assay [5], 4.83 µM; in [6], 6.35 µM. In addition, the TGI in assay [7] amounted to 4.08 µM; in [8], 12.7 µM; in assay [9], 13.6 µM; in assay [10], 8.27 µM.

As to `Cc1ccc(S(=O)(=O)Nc2ccccc2C=O)cc1`, the TGI came to 33.5 µM in [1]; 45 µM in [2]; 34.1 µM in [3]; 26.8 µM in assay [4]; 5.08 µM in [5]; 82.1 µM in assay [6]. For the same molecule, the TGI in [7] came out at 27.5 µM; in [8], 47.5 µM; in [9], 60.8 µM; in assay [10], 33.2 µM.

For the molecule `COc1cccc(C2CC(C)(O)Oc3cc4c(cc32)OCO4)c1O` (configuration not stated), the TGI in assay [1] is 52.3 µM; in assay [2], 89.2 µM; in assay [3], 67.8 µM; in [4] it was 97.9 µM; in [5], 38.5 µM; in assay [6], 53.5 µM. The TGI in [7] is > 100 µM; in assay [8], > 100 µM; in assay [9], > 53.6 µM; in [10] it was 41.3 µM.

For the molecule `NC(=O)/C=C/C(=O)c1c(Cl)cccc1Cl`, the GI50 was 1.59 µM in assay [1]; 1.4 µM in assay [2]; 1.75 µM in assay [3]; 0.429 µM in assay [4]; 1.41 µM in assay [5]; 0.204 µM in assay [6]. The GI50 in assay [7] was 0.793 µM; in assay [8], 0.511 µM; in [9] it was 0.653 µM; in assay [10] it was 0.191 µM. In addition, the TGI was 3.02 µM in [1]; 2.69 µM in [2]; 3.27 µM in assay [3]; 0.859 µM in assay [4]; 2.71 µM in assay [5]; 0.432 µM in assay [6]. Moreover, the TGI amounted to 2.16 µM in assay [7], 1.04 µM in assay [8], 5.83 µM in assay [9] and 0.355 µM in assay [10].

With `O=C(/C=C/c1ccccc1)CCC1C(=O)c2ccccc2C1=O`, the TGI in assay [1], in [2], in assay [3], in assay [4], in [5] and in assay [6] was > 100 µM throughout. Besides, the TGI in assay [7], in assay [8], in assay [9] and in assay [10] was > 100 µM in each case.

With `CC(C)NC(=O)OCc1c(COC(=O)NC(C)C)c(-c2cc[n+](COC(=O)C3CC3)cc2)n2c1CCC2`, the TGI in assay [1], in assay [2], in [3], in [4], in assay [5] and in assay [6] was > 100 µM each time. For the same molecule, the TGI in [7], in [8], in [9] and in [10] was > 100 µM in each case.

Take `N#Cc1c(NC(=O)NCc2ccccc2)sc2c1CCCCC2`: the GI50 in assay [1] was 0.448 µM; in [2], 0.682 µM; in [3], 1.61 µM; in assay [4] it was 0.626 µM; in [5], 0.328 µM; in assay [6], 0.601 µM. Moreover, the GI50 in [7] is 0.573 µM; in assay [8], 0.406 µM; in [9] it was 0.371 µM; in [10] it was 0.521 µM. Further, the TGI is > 100 µM in assay [1]; > 100 µM in assay [2]; > 100 µM in assay [3]; > 100 µM in assay [4]; 1.87 µM in [5]; 25.3 µM in [6]. Moreover, the TGI in assay [7] was > 100 µM; in assay [8], > 100 µM; in [9], > 100 µM; in assay [10], 3.74 µM.

Take `CN(C)CCNC(=O)c1cccc2ccc(-c3ccc(O)cc3)nc12`: the GI50 in assay [1] is 3.03 µM; in [4], 1.58 µM; in [6] it was 2.26 µM; in assay [10], 2.31 µM. Moreover, the TGI is 16.8 µM and 14.9 µM in assay [1]; 13.2 µM in [2]; 4.13 µM in assay [3]; 7.35 µM and 5.12 µM in assay [4]; 15.1 µM and 13.9 µM in assay [5]; 4.62 µM and 9.18 µM in assay [6]. Besides, the TGI was 3.43 µM in assay [7]; 11.1 µM in assay [8]; 3.96 µM in assay [9]; 14.6 µM and 14.4 µM in assay [10].

As for `O=C(O)COc1ccc2c(=O)c3sc4c(=O)c5ccccc5c(=O)c4c3c(=O)c2c1`, the GI50 in assay [1] was 24.3 µM; in assay [2], 12.3 µM; in assay [3], 24.8 µM; in [4], 11.8 µM; in assay [5], 13.2 µM; in assay [6] it was 19.3 µM. Besides, the GI50 is 9.18 µM in [7], 11.4 µM in [8], 25.6 µM in assay [9] and 13.7 µM in assay [10]. The TGI in assay [1] was > 100 µM; in assay [2] it was 29.8 µM; in [3], 73.6 µM; in assay [4], 30.1 µM; in [5] it was 26.1 µM; in assay [6] it was 53.4 µM. Further, the TGI worked out at 61.1 µM in assay [7], 28.6 µM in assay [8], 95.1 µM in assay [9] and 31.4 µM in assay [10].

Source of the values: PubChem BioAssay (NCI).
